For orientation: MIC means the lowest concentration that inhibits growth of the organism. A higher MIC goes with weaker potency.

Values after ≈ are worked out from the molar mass of the structure shown.

For five compounds, MIC results are on record in US4552882A, “7-(1-Pyrrolyl) derivatives of 1-ethyl-1,4-dihydro-4-oxoquinoline-3-carboxylic acids and 1-ethyl-1,4-dihydro-4-oxo-1,8-naphthyridine-3-carboxylic acids and their use as antimicrobial agents” (Provesan, SA, priority 1983, dated 1985).

What all share (experiment): MIC in vitro
What all share (format): cell-based

Assay [1] concerns Enterobacter cloacae CHSP 20. The note with it: CHSP20, Dextrose agar, 37° C., 20 hours. On the procedure: (§1) (G. L. Daquet and Y. A. Chabbect, Techniques en bacteriologie (Bacteriological techniques), vol. 3, Flammarion Medecine Sciences, Paris, 1972 and W. B. Hugo and A. D. Rusell, Pharmaceutical Microbiology, Blackwell Scientific Publications, London, (1977)). Antibiotic medium no. 1 (seed agar) (Oxoid CM 327) Tryptone-soya broth (Oxoid CM 129) Ringer's physiological solution 1/4 (oxoid BR 52) Dextrose agar (BBL-11165) 0.1 N NaOH "Enterobacter cloacae" CHSP 20 Each of the microorganisms is seeded by streaking in tubes of Antibiotic medium No. 1 (seed agar), which are then incubated at 37° C. for 20 hours. Using a culture loop, the cultures are then seeded in tryptone-soyabroth and incubated at 37° C. for 20 hours. The culture obtained is diluted to 1/4 with Ringer's physiological solution, so as to obtain a standardized suspension of 10^7 -10^9 cfu/ml for each organism. Starting from a solution of 1,000 μg/ml in 0.1 N NaOH, each product is diluted in Dextrose agar (previously melted and maintained at 50° C.), with successive dilutions so as to obtain the following concentrations: 64--32--16--8--4--2--1--0.5--0.25--0.125 μg of derivative/ml medium. For each product, the solution of each concentration is subsequently distributed into Petri dishes 10 cm in diameter, with 10 ml of medium per dish and the same number of dishes as microorganisms to be tested. As soon as the medium has cooled, the dishes are seeded with the inoculations using 0.4 ml of inoculation per dish. They are spread with a Driglasky loop and the supernatant is removed. The seeded dishes are incubated at 37° C. for 20 hours.

The test system of assay [2] is Shigella flexnerii. The following applies: Dextrose agar, 37° C., 20 hours. On the procedure:
(G. L. Daquet and Y. A. Chabbect, Techniques en bacteriologie (Bacteriological techniques), vol. 3, Flammarion Medecine Sciences, Paris, 1972 and W. B. Hugo and A. D. Rusell, Pharmaceutical Microbiology, Blackwell Scientific Publications, London, (1977)).
Antibiotic medium no. 1 (seed agar) (Oxoid CM 327)
Tryptone-soya broth (Oxoid CM 129)
Ringer's physiological solution 1/4 (oxoid BR 52) Dextrose agar (BBL-11165) 0.1 N NaOH
Each of the microorganisms is seeded by streaking in tubes of Antibiotic medium No. 1 (seed agar), which are then incubated at 37° C. for 20 hours. Using a culture loop, the cultures are then seeded in tryptone-soyabroth and incubated at 37° C. for 20 hours. The culture obtained is diluted to 1/4 with Ringer's physiological solution, so as to obtain a standardized suspension of 10^7 -10^9 cfu/ml for each organism.
Starting from a solution of 1,000 μg/ml in 0.1 N NaOH, each product is diluted in Dextrose agar (previously melted and maintained at 50° C.), with successive dilutions so as to obtain the following concentrations: 64--32--16--8--4--2--1--0.5--0.25--0.125 μg of derivative/ml medium.
For each product, the solution of each concentration is subsequently distributed into Petri dishes 10 cm in diameter, with 10 ml of medium per dish and the same number of dishes as microorganisms to be tested.
As soon as the medium has cooled, the dishes are seeded with the inoculations using 0.4 ml of inoculation per dish. They are spread with a Driglasky loop and the supernatant is removed. The seeded dishes are incubated at 37° C. for 20 hours.

Assay [3] has as its system Streptococcus faecalis ATCC 10541. The following applies: Enterococcus faecalis, ATCC10541, Dextrose agar, 37° C., 20 hours.
Description: as §1, with “"Streptococcus faecalis" ATCC 10541” for “"Enterobacter cloacae" CHSP 20”

For the compound `CCn1cc(C(=O)O)c(=O)c2ccc(-n3cccc3)nc21` [Example 3, 1-ethyl-1,4-dihydro-4-oxo-7-(1-pyrrolyl)-1,8-naphthyridine-3-carboxylic acid], the minimal inhibitory concentration (MIC) in assay [1] was 8 µg/mL (≈ 28.2 µM); in assay [2], 16 µg/mL (≈ 56.5 µM); in assay [3], 32 µg/mL (≈ 113 µM).

`CCn1cc(C(=O)O)c(=O)c2cc(F)c(-n3cccc3)cc21` [Example 2, 6-fluoro-7-(1-pyrrolyl)-1-ethyl-1,4-dihydro-4-oxo-3-quinolinecarboxylic acid]: the minimal inhibitory concentration (MIC) in assay [1] amounted to 1 µg/mL (≈ 3.33 µM); in assay [2] it was 2 µg/mL (≈ 6.66 µM); in assay [3], 1 µg/mL (≈ 3.33 µM).

On to `CCn1cc(C(=O)O)c(=O)c2cnc(N3CCNCC3)nc21` [Pipemidic acid, reference compound], for which the MIC in assay [1] was 8 µg/mL (≈ 26.4 µM); in assay [2], 4 µg/mL (≈ 13.2 µM); in assay [3], over 64 µg/mL.

Consider `CCn1cc(C(=O)O)c(=O)c2ccc(-n3cccc3)cc21` [Example 1, 7-(1-pyrrolyl)-1-ethyl-1,4-dihydro-4-oxo-3-quinolinecarboxylic acid], for which the MIC in assay [1] was 16 µg/mL (≈ 56.7 µM); in assay [2], 8 µg/mL (≈ 28.3 µM); in assay [3], 16 µg/mL (≈ 56.7 µM).

For the compound `CCn1cc(C(=O)O)c(=O)c2cc(F)c(-n3cccc3)nc21` [Example 4, 1-ethyl-1,4-dihydro-4-oxo-6-fluoro-7-(1-pyrrolyl)-1,8-naphthyridine-3-carboxylic acid], the figures for the MIC in assay [1], in assay [2] and in assay [3] were 2 µg/mL (≈ 6.64 µM), 2 µg/mL (≈ 6.64 µM) and 8 µg/mL (≈ 26.6 µM), respectively.
